{"source": "patent US20110112121A1", "about": "“Pharmaceutical Compositions and Solid Forms” (priority 2009, published 2011)", "key": {"[1]": {"assay": "Stability of crystal forms under ambient conditions", "assay_type": "physicochemical"}, "[2]": {"system": "dermal angiogenesis", "assay": "Matrigel assay in domestic pigs", "assay_type": "in vivo", "description": "(§1) Vascular endothelial growth factors (VEGFs) have angiogenic and vascular permeability-promoting activities in vitro and in vivo. […] Young domestic pigs were used because pig skin is very similar to human skin in architecture and permeability for xenobiotics. Inhibition of dermal angiogenesis related to the agent of the invention was tested with an “matrigel” assay which was developed for studies in pigs; inhibition of vascular permeability in the skin with a modified Miles assay. With matrigel implants into which endothelial cells immigrate to form new vessels anti-angiogenic effects of applied test articles can be assessed in vivo; with the Miles assay, extravasation of Evans blue-labeled albumin is measured after VEGF-induced vascular leakage.\nMethod: Test areas on both paramedian ventral abdominal sides of 16-18 kg weighing domestic pigs were topically treated with 0.5% 6-(6-hydroxymethyl-pyrimidin-4-yloxy)-naphthalene-1-carboxylic acid (3-trifluoromethyl-phenyl)-amide or the vehicle (ethanol/propylene glycol 3/7) alone. Treatment was performed twice daily on days 1-4. On day 2, 100 μl matrigel, loaded with the angiogenic factors […] VEGF-165 and 40 U/ml heparin were injected intradermally at 10 different sites of the treated areas. On day 5, the animals were sacrificed and 8 mm punches from the injection sites collected, the subcutaneous fatty tissue removed, the hemorrhagic plugs carefully dissected and weighed. Thereafter, the samples were digested with dispase and single cell suspensions prepared. The isolated cells were stained with the endothelial cell marker CD31 or isotype controls and analyzed with FACS after gating for endothelial cells."}, "[3]": {"system": "VEGF-induced extravasation", "assay": "Miles assay in domestic pigs", "assay_type": "in vivo", "description": "as §1\nMethod: Test areas of 5×20 cm on both paramedian ventral abdominal sides of 16-18 kg weighing domestic pigs were topically treated with 1 ml of 0.8% 6-(6-hydroxymethyl-pyrimidin-4-yloxy)-naphthalene-1-carboxylic acid (3-trifluoromethyl-phenyl)-amide trice (30, 7 and 3 hrs prior to elicitation of vascular leakage with VEGF). […] Evans blue was extracted from the biopsies with 0.5 ml formamide and the concentration of Evans blue in the supernatants was measured photometrically. […]"}, "[4]": {"assay": "Solubility of the agent in hydrophilic and hydrophobic media", "assay_type": "physicochemical", "conditions": "hydrophilic and hydrophobic media (aqueous and oily media)"}, "[5]": {"conditions": "0.5% in ethanol:propylene glycol 3/7, topical twice daily days 1-4, plugs excised day 5"}}, "note": "Values joined by “and” are separate entries in the source; they are usually repeats but may differ in a detail not shown here. Identical values can stand only once."}
{"smiles": "O.O=C(Nc1cccc(C(F)(F)F)c1)c1cccc2cc(Oc3cc(CO)ncn3)ccc12.O=C(Nc1cccc(C(F)(F)F)c1)c1cccc2cc(Oc3cc(CO)ncn3)ccc12", "note": "[Crystal form B, 6-(6-Hydroxymethyl-pyrimidin-4-yloxy)-naphthalene-1-carboxylic acid (3-trifluoromethyl-phenyl)-amide hemihydrate, modification B]", "values": [{"measurement": "stability of the modification (in words)", "setting": "[1]", "value": "particularly stable modification"}]}
{"smiles": "O=C(Nc1cccc(C(F)(F)F)c1)c1cccc2cc(Oc3cc(CO)ncn3)ccc12", "note": "[agent of the invention, 6-(6-hydroxymethyl-pyrimidin-4-yloxy)-naphthalene-1-carboxylic acid (3-trifluoromethyl-phenyl)-amide]", "values": [{"measurement": "difference in CD31+ cell number vs vehicle-treated sites", "setting": "[2]; 0.5% epicutaneously, gated on endothelial cells", "value": 66, "unit": "%"}, {"measurement": "plug weight less than vehicle-treated sites", "setting": "[2]; 0.5% epicutaneously, vs vehicle", "value": 19, "unit": "%"}, {"measurement": "Cell counts (CD31+)/μl, gated on endothelial cells", "setting": "[2]; [5]", "value": 353, "unit": "µL⁻¹"}, {"measurement": "Weight (mg) of excised plugs", "setting": "[2]; [5]", "value": "88 mg and 87.8 mg"}, {"measurement": "inhibition of VEGF-induced extravasation", "setting": "[3]; 0.8% agent topically 30, 7 and 3 hrs before VEGF 165, vs placebo", "value": 24, "unit": "%"}, {"measurement": "Evans blue concentration (μg/ml tissue extract)", "setting": "[3]; 0.8% agent, 1 ml topically 30, 7 and 3 hrs before VEGF 165 injection, biopsies 30 min after challenge", "value": "1.26 (0.13)++ μg/ml tissue extract"}, {"measurement": "solubility properties (in words)", "setting": "[4]", "value": "very poor solubility properties"}]}
